Earlier results on 2 molecules are cited in patent publication US8207376B2, “Method for producing amino acid phosphates” (priority 2006, dated 2012).

SMILES strings stand for the structures.

For data set [1] the following is noted: as reported in JP-A-2006-182753.
For data set [2] the following is noted: as reported in JP-A-2006-182753. The source holds these as a separate data set.
The conditions of data set [3]: heating; known property.

`NCC(=O)CCC(=O)O.O=P(O)(O)O` [δ-aminolevulinic acid phosphate]: in data set [1], the “stimulative nature against the skin and tongue” value was “low stimulative nature against the skin and tongue”. Moreover, the “permeability through the skin and the like” value in data set [2] is listed as “excellent”.

Regarding `Cl.NCC(=O)CCC(=O)O` [δ-aminolevulinic acid hydrochloride], the “temperature at which it is completely degraded” value in data set [3] is no less than 156 °C.
